A value given as a limit tells only on which side of the number the result lay.

For the first assay, the system named is Blumeria graminis f. sp. tritici (Erysiphe graminis f. sp. tritici). Nature of the assay: Blumeria graminis f. sp. tritici / wheat / leaf disc preventative (powdery mildew on wheat). The settings on record: foliar, wheat leaf segments cv. Kanzler, inoculated 1 day after application, assessed 6-8 days after application, read-out: control of Blumeria graminis (percent disease control compared to untreated). In kind it is in vivo. As for the experimental part:
Blumeria Graminis f. Sp. Tritici (Erysiphe Graminis f. Sp. Tritici)/Wheat/Leaf Disc Preventative (Powdery Mildew on Wheat):
Wheat leaf segments cv. Kanzler were placed on agar in a 24-well plate and sprayed with the formulated test compound diluted in water at an application rate of 200 ppm. The leaf disks were inoculated by shaking powdery mildew infected plants above the test plates 1 day after application. The inoculated leaf disks were incubated at 20° C. and 60% relative humidity under a light regime of 24 h darkness followed by 12 h/12 h (dark/light) in a climate chamber and the activity of a compound was assessed as percent disease control compared to untreated when an appropriate level of disease damage appears on untreated check leaf segments (6-8 days after application). The following compounds gave at least 80% control of Blumeria graminis: […]
With `Cc1ccc2c(n1)/C(=N/OCC(C)(C)CO/N=C1\CCc3ccc(C)nc31)CCC2` [P.08], the pest or weed control at 200 ppm is ≥ 80%.
`COCc1cc(C)c2c(n1)/C(=N/OCC(C)(C)CO/N=C1\CCCc3ccc(C)nc31)CCC2` [P.42]: the pest or weed control at 200 ppm is ≥ 80%.
Same read-out and setting: next, `Cc1ccc2c(n1)/C(=N/OCCCO/N=C1\CCCc3ccc(C(F)(F)F)nc31)CCC2` [P.47]: ≥ 80%; `Cc1cc(CF)c2c(n1)/C(=N/OCCCO/N=C1\CCCc3c(CF)cc(C)nc31)CCC2` [P.48]: ≥ 80%.
Consider `Cc1c2c(nc3ccccc13)/C(=N/OCC(C)(C)CO/N=C1\CCCc3c1nc1ccccc1c3C)CCC2` [P.28], for which the pest or weed control at 200 ppm was ≥ 80%.

The subject of another assay is Puccinia recondita f. sp. tritici. Nature of the assay: Puccinia recondita f. sp. tritici / wheat / leaf disc preventative (brown rust). The note with it: foliar, wheat leaf segments cv Kanzler, inoculated 1 day after application, assessed 7-9 days after application, read-out: control of Puccinia recondita f. sp. tritici, preventative (percent disease control compared to untreated). It is filed as in vivo. As for the experimental part:
Puccinia Recondita f. Sp. Tritici/Wheat/Leaf Disc Preventative (Brown Rust): Wheat leaf segments cultivated variety (cv) Kanzler were placed on agar in 24-well plates and sprayed with formulated test compound diluted in water at an application rate of 200 ppm. The leaf disks were inoculated with a spore suspension of the fungus 1 day after application. The inoculated leaf segments were incubated at 19° C. and 75% relative humidity under a light regime of 12/12 h (light/dark) in a climate cabinet and the activity of a compound was assessed as percent disease control compared to untreated when an appropriate level of disease damage appears in untreated check leaf segments (7-9 days after application).
As for `COCc1cc(C)c2c(n1)/C(=N/OCC(C)(C)CO/N=C1\CCCc3ccc(C)nc31)CCC2` [P.42], the pest or weed control at 200 ppm was ≥ 80%.
Same read-out and setting: next, `Cc1ccc2c(n1)/C(=N/OCCCO/N=C1\CCCc3ccc(C(F)(F)F)nc31)CCC2` [P.47]: ≥ 80%; `Cc1cc(CF)c2c(n1)/C(=N/OCCCO/N=C1\CCCc3c(CF)cc(C)nc31)CCC2` [P.48]: ≥ 80%.

A further assay has the same test system. The experiment in a line: Puccinia recondita f. sp. tritici / wheat / leaf disc curative (brown rust). The settings on record: foliar, 200 ppm applied 1 day after inoculation, wheat leaf segments cv Kanzler, assessed 6-8 days after application, read-out: control of Puccinia recondita f. sp. tritici, curative (percent disease control compared to untreated). It is filed as in vivo. As for the experimental part: Puccinia Recondita f. Sp. Tritici/Wheat/Leaf Disc Curative (Brown Rust): Wheat leaf segments cv Kanzler were placed on agar in 24-well plates. The leaf segments were inoculated with a spore suspension of the fungus. The plates were stored in darkness at 19° C. and 75% relative humidity. The formulated test compound diluted in water was applied at an application rate of 200 ppm 1 day after inoculation.
For `COCc1cc(C)c2c(n1)/C(=N/OCC(C)(C)CO/N=C1\CCCc3ccc(C)nc31)CCC2` [P.42], the pest or weed control at 200 ppm is ≥ 80%.
Consider `Cc1ccc2c(n1)/C(=N/OCCCO/N=C1\CCCc3ccc(C(F)(F)F)nc31)CCC2` [P.47], for which the pest or weed control at 200 ppm was ≥ 80%.
As for `Cc1cc(CF)c2c(n1)/C(=N/OCCCO/N=C1\CCCc3c(CF)cc(C)nc31)CCC2` [P.48], the pest or weed control at 200 ppm was ≥ 80%.

In another assay the test system is Magnaporthe grisea (Pyricularia oryzae). Nature of the assay: whole plant or invertebrate. In kind it is in vivo. The note with it: foliar, read-out: control of Magnaporthe grisea (percent disease control compared to untreated).
Regarding `COCc1cc(C)c2c(n1)/C(=N/OCC(C)(C)CO/N=C1\CCCc3ccc(C)nc31)CCC2` [P.42], the pest or weed control at 200 ppm is ≥ 80%.
Same read-out and setting: next, `Cc1cc(CF)c2c(n1)/C(=N/OCCCO/N=C1\CCCc3c(CF)cc(C)nc31)CCC2` [P.48]: ≥ 80%.

For a further assay, the system named is Phaeosphaeria nodorum (Septoria nodorum). Nature of the assay: Phaeosphaeria nodorum (Septoria nodorum) / wheat / leaf disc preventative (glume blotch). The note with it: Parastagonospora nodorum, foliar, wheat leaf segments cv Kanzler, inoculated 2 days after application, assessed 5-7 days after application, read-out: control of Phaeosphaeria nodorum (percent disease control compared to untreated). It is filed as in vivo. The procedure: Phaeosphaeria Nodorum (Septoria nodorum)/Wheat/Leaf Disc Preventative (Glume Blotch): Wheat leaf segments cv Kanzler were placed on agar in a 24-well plate and sprayed with formulated test compound diluted in water at an application rate of 200 ppm. The leaf disks are inoculated with a spore suspension of the fungus 2 days after application. The inoculated test leaf disks are incubated at 20° C. and 75% relative humidity under a light regime of 12/12 h (light/dark) in a climate cabinet and the activity of a compound is assessed as percent disease control compared to untreated when an appropriate level of disease damage appears in untreated check leaf disks (5-7 days after application).
In the case of `COCc1cc(C)c2c(n1)/C(=N/OCC(C)(C)CO/N=C1\CCCc3ccc(C)nc31)CCC2` [P.42], the pest or weed control at 200 ppm was ≥ 80%.
The same measure, in the same setting: next, `Cc1ccc2c(n1)/C(=N/OCCCO/N=C1\CCCc3ccc(C(F)(F)F)nc31)CCC2` [P.47]: ≥ 80%.
`Cc1cc(CF)c2c(n1)/C(=N/OCCCO/N=C1\CCCc3c(CF)cc(C)nc31)CCC2` [P.48]: the pest or weed control at 200 ppm is ≥ 80%.
`Cc1c2c(nc3ccccc13)/C(=N/OCC(C)(C)CO/N=C1\CCCc3c1nc1ccccc1c3C)CCC2` [P.28]: the pest or weed control at 200 ppm was ≥ 80%.

Another assay has as its system Pyrenophora teres. The experiment in a line: Pyrenophora teres / barley / leaf disc preventative (net blotch). It is filed as in vivo. The settings on record: foliar, barley leaf segments cv Hasso, inoculated two days after application, assessed 5-7 days after application, read-out: control of Pyrenophora teres (disease control compared to untreated). As for the experimental part: Pyrenophora Teres/Barley/Leaf Disc Preventative (Net Blotch): Barley leaf segments cv Hasso are placed on agar in a 24-well plate and sprayed with formulated test compound diluted in water at an application rate of 200 ppm. The leaf segments are inoculated with a spore suspension of the fungus two days after application of the test solution. The inoculated leaf segments are incubated at 20° C. and 65% relative humidity under a light regime of 12/12 h (light/dark) in a climate cabinet and the activity of a compound is assessed as disease control compared to untreated when an appropriate level of disease damage appears in untreated check leaf segments (5-7 days after application).
Consider `COCc1cc(C)c2c(n1)/C(=N/OCC(C)(C)CO/N=C1\CCCc3ccc(C)nc31)CCC2` [P.42], for which the pest or weed control at 200 ppm was ≥ 80%.
The same measure, in the same setting: next, `Cc1ccc2c(n1)/C(=N/OCCCO/N=C1\CCCc3ccc(C(F)(F)F)nc31)CCC2` [P.47]: ≥ 80%; `Cc1cc(CF)c2c(n1)/C(=N/OCCCO/N=C1\CCCc3c(CF)cc(C)nc31)CCC2` [P.48]: ≥ 80%; `Cc1c2c(nc3ccccc13)/C(=N/OCC(C)(C)CO/N=C1\CCCc3c1nc1ccccc1c3C)CCC2` [P.28]: ≥ 80%.

For a further assay, the system named is Pythium ultimum. Nature of the assay: Pythium ultimum / liquid culture (seedling damping off). In kind it is cell-based. The settings on record: Globisporangium ultimum, PDB potato dextrose broth, 24° C., 2-3 days after application, read-out: control of Pythium ultimum (inhibition of growth, photometrically). The procedure:
Pythium Ultimum/Liquid Culture (Seedling Damping Off): Mycelia fragments and oospores of a newly grown liquid culture of the fungus were directly mixed into nutrient broth (PDB potato dextrose broth). After placing a DMSO solution of test compound into a 96 well microtiter plate at an application rate 200 ppm, the nutrient broth containing the fungal mycelia/spore mixture was added. The test plates were incubated at 24° C. and the inhibition of growth was determined photometrically 2-3 days after application.
In the case of `COCc1cc(C)c2c(n1)/C(=N/OCC(C)(C)CO/N=C1\CCCc3ccc(C)nc31)CCC2` [P.42], the inhibition at 200 ppm is ≥ 80%.
Turning to `Cc1cc(CF)c2c(n1)/C(=N/OCCCO/N=C1\CCCc3c(CF)cc(C)nc31)CCC2` [P.48], the inhibition at 200 ppm is ≥ 80%.

For a further assay, the system named is Botryotinia fuckeliana (Botrytis cinerea). Nature of the assay: Botryotinia fuckeliana (Botrytis cinerea) / liquid culture (gray mould). In kind it is cell-based. The settings on record: Vogels broth, 24° C., 3-4 days after application, read-out: control of Botryotinia fuckeliana (inhibition of growth, photometrically). The procedure: Botryotinia Fuckeliana (Botrytis cinerea)/Liquid Culture (Gray Mould): Conidia of the fungus from cryogenic storage were directly mixed into nutrient broth (Vogels broth). After placing a DMSO solution of test compound into a 96-well microtiter plate at an application rate 200 ppm, the nutrient broth containing the fungal spores was added. The test plates were incubated at 24° C. and the inhibition of growth was determined photometrically 3-4 days after application.
In the case of `Cc1ccc2c(n1)/C(=N/OCC(C)(C)CO/N=C1\CCc3ccc(C)nc31)CCC2` [P.08], the inhibition at 200 ppm was ≥ 80%.
In the case of `COCc1cc(C)c2c(n1)/C(=N/OCC(C)(C)CO/N=C1\CCCc3ccc(C)nc31)CCC2` [P.42], the inhibition at 200 ppm is ≥ 80%.
For `Cc1ccc2c(n1)/C(=N/OCCCO/N=C1\CCCc3ccc(C(F)(F)F)nc31)CCC2` [P.47], the inhibition at 200 ppm was ≥ 80%.
In the case of `Cc1cc(CF)c2c(n1)/C(=N/OCCCO/N=C1\CCCc3c(CF)cc(C)nc31)CCC2` [P.48], the inhibition at 200 ppm is ≥ 80%.
Turning to `Cc1c2c(nc3ccccc13)/C(=N/OCC(C)(C)CO/N=C1\CCCc3c1nc1ccccc1c3C)CCC2` [P.28], the inhibition at 200 ppm is ≥ 80%.

For the origin of these results see patent US20140162980A1, “NOVEL MICROBIOCIDAL DIOXIME ETHER DERIVATIVES” (SYNGENTA CROP PROTECTION LLC, priority 2010, published 2014).
